These results are taken from patent US9783539B2, “Indoloquinolone compounds as anaplastic lymphoma kinase (ALK) inhibitors” (Jiangsu Ascentage Biomed Development Inc., priority 2014, dated 2017).

pIC50: −log10 of the molar value. Several values for one entry are separate records, joined by “and”; a condition that tells them apart may be missing. Equal values may be shown once. Read-outs that look alike come from different tables or passages of the source.

Data set [1] has as its system Kappas-299 cells containing NPM-ALK fusion protein. As to the kind of experiment: 4-day cell viability assay (CellTiter-Glo), Kappas-299. The data set is classed as cell-based. The conditions noted are these: inhibition of cell growth, 4 days, multiple values from independent experiments. The method, then:
The effect of compounds on cell viability was determined in a 4-day proliferation assay. Cells were maintained in RPMI1640 culture medium with 10% FBS at 37° C. and an atmosphere of 5% CO2. […] Cells were seeded in 96-well plates at a density of 3,000-10,000 cells/well in 75 μl of culture medium. Compounds were serially diluted in the appropriate medium, and 75 μl of the diluted compounds were added to the appropriate wells of the cell plate. After the addition of compounds, the cells were incubated at 37° C. in an atmosphere of 5% CO2 for 4 days. Cell viability was determined using the CellTiter-Glo® Luminescent Cell Viability Assay Kit (Promega, Madison, Wis.) (for KARPAS-299 cells) or WST (2-(2-methoxy-4-nitrophenyl)-3-(4-nitrophenyl)-5-(2,4-disulfophenyl)-2H-tetrazolium, monosodium salt) Cell Counting-8 Kit (Dojindo Molecular Technologies, Inc., Rockville, Md.) (for H3122 cells) according to the manufacturers' instructions.
For CellTiter-Glo assay, 100 μl of CellTiter-Glo® Reagent was added to each well, and then the plates were incubated at room temperature for 10-20 minutes. The luminescent signal was measured using a Tecan Infinite M1000 multimode microplate reader (Tecan, Morrisville, N.C.). The readings were normalized to the DMSO-treated cells and the IC50 was calculated by nonlinear regression analysis using the GraphPad Prism 5 software.
Cells were treated for four days and cell growth was determined using a CellTiter-Glo assay.
Background: ATP-based viability assays read luminescence as a measure of living cells.

The target of data set [2] is wild-type human ALK protein (cytoplasmic domain, amino acid 1058-1620, GST-fusion) (Homo sapiens, UniProt Q9UM73). As to the kind of experiment: biochemical. The conditions noted are these: ALK IC50, wild-type ALK; 100 μM ATP.
Procedure: Kinase activities of all enzymes were assessed using a Lance TR-FRET assay kit from Perkin Elmer Life Sciences (Waltham, Mass.). 2.5 μL of compound solution and 5 μL of protein solution were added into a black low volume 384 well microtiter plate which was incubated for 15 minutes with gentle shaking at room temperature, followed by adding 2.5 μL of fluorescently labeled peptide substrate (Ulight-[sequence]) and ATP mixture solution. The kinase reaction was performed in 50 mM HEPES (pH 7.5) with 1 mM EGTA, 1 mM MgCl2, and 2 mM DTT, 0.01% Tween-20 added right before the assay. […] The reaction was allowed to perform for 90 minutes in dark with gentle shaking at room temperature after which 10 μL of 20 mM EDTA and 2 nM Eu-W1024 anti-phosphotyrosine antibody (PT66) mixture solution in the detection buffer from the manufacturer was added to terminate the reaction and detect the phosphorylation of the peptide substrate. Final mixture was incubated in the dark for 1 hour before the plate was read on a Tecan Infinite M-1000 multi-mode plate reader (Tecan, Durham N.C.) with an excitation wavelength of 320 nm.
Data set [3] is described as follows: Pharmacokinetic parameters in SD rats, IV and PO. Details: AUC(0-t): concentration or dose not given beside the values. The conditions noted are these: Sprague-Dawley (SD), rat, in vivo; for bioavailability: po, read-out: Oral Bioavailability (F). The source says:
The pharmacokinetic (PK) parameters in SD rats for selected compounds with intravenous (IV) and oral (PO) administrations are provided in the following table (Table 5).

[4] abbreviates: intravenous, read-out: AUC0-t IV.
[5] abbreviates: intravenous, read-out: t1/2 IV (converted).
Setting [6] is: oral, read-out: t1/2 PO (converted).

In general, pIC50 refers to −log10 of the IC50, conventionally taken in molar units. What is called Cmax is the peak of the concentration-time curve. A word on the Tmax: it is the time at which the peak concentration occurs. By bioavailability is commonly meant dose-corrected exposure relative to a reference, in per cent.

Chain of wild-type human ALK protein (cytoplasmic domain, amino acid 1058-1620, GST-fusion) (Q9UM73 1058-1620): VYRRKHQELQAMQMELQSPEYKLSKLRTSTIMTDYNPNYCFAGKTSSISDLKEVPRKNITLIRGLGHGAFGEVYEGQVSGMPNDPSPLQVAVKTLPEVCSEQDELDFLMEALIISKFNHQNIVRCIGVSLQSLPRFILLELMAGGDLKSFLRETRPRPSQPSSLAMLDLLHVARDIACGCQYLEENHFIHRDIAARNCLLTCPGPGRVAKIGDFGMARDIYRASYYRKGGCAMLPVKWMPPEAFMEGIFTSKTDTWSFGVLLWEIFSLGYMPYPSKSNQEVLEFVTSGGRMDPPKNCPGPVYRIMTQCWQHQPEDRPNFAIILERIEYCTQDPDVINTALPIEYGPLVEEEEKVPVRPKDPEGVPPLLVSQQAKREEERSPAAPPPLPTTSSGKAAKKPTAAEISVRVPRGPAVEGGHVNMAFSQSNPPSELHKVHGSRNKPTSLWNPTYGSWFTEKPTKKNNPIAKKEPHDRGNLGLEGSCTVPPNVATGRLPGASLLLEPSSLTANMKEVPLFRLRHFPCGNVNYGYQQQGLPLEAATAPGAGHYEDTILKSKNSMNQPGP

`COc1cc2c(=O)c3c4ccc(C#N)cc4[nH]c3n(C)c2cc1N1CCC(N2CCOCC2)CC1` [ALK-22, 2-Methoxy-5-methyl-3-(4-morpholinopiperidin-1-yl)-11-oxo-6,11-dihydro-5H-indolo[2,3-b]quinoline-8-carbonitrile]: the pIC50 in data set [1] (NPM-ALK, 96 h) is 7.04; in data set [2] it was 6.18.
`COc1cc2c(=O)c3c4ccc(C#N)cc4[nH]c3n(C)c2cc1N1CCN(C)CC1` [ALK-23, 2-Methoxy-5-methyl-3-(4-methylpiperazin-1-yl)-11-oxo-6,11-dihydro-5H-indolo[2,3-b]quinoline-8-carbonitrile] showed a pIC50 in data set [2] of 6.51.
Take `COc1cc2c(=O)c3c4ccc(C#N)cc4[nH]c3n(C(C)C)c2cc1N1CCC(N2CCOCC2)CC1` [ALK-25, 5-isoPropyl-2-methoxy-3-(4-morpholinopiperidin-1-yl)-11-oxo-6,11-dihydro-5H-indolo[2,3-b]quinoline-8-carbonitrile]: the pIC50 in data set [1] (NPM-ALK, 96 h) is 6.86; in data set [2], 7.75.
Turning to `CCC(CC)n1c2cc(N3CCN(C)CC3)c(OC)cc2c(=O)c2c3ccc(C#N)cc3[nH]c21` [ALK-40, 2-Methoxy-3-(4-methylpiperazin-1-yl)-11-oxo-5-(pentan-3-yl)-6,11-dihydro-5H-indolo[2,3-b]quinoline-8-carbonitrile], the pIC50 in data set [1] (NPM-ALK, 96 h) is 6.38; in data set [2], 7.53.
For `COc1cc2c(=O)c3c4ccc(C#N)cc4[nH]c3n(CC(C)(C)C)c2cc1N1CCN(C)CC1` [ALK-43, 2-Methoxy-3-(4-methylpiperazin-1-yl)-5-neopentyl-11-oxo-6,11-dihydro-5H-indolo[2,3-b]quinoline-8-carbonitrile], the pIC50 is 6.58 in data set [1] (NPM-ALK, 96 h); 6.58 in data set [1]; 7.55 in data set [2].
On to `CCc1cc2c(=O)c3c4ccc(C#N)cc4[nH]c3n(C3CCC3)c2cc1N1CCN(C)CC1` [ALK-45, 5-cyclobutyl-2-ethyl-3-(4-methylpiperazin-1-yl)-11-oxo-6,11-dihydro-5H-indolo[2,3-b]quinoline-8-carbonitrile], for which the pIC50 in data set [1] (NPM-ALK, 96 h) is 7.46; in data set [1], 7.21; in data set [2], 8.74 and 8.29.
In the case of `C=Cc1cc2c(=O)c3c4ccc(C#N)cc4[nH]c3n(C(C)C)c2cc1N1CCN(C)CC1` [ALK-46, 5-isoPropyl-3-(4-methylpiperazin-1-yl)-11-oxo-2-vinyl-6,11-dihydro-5H-indolo[2,3-b]quinoline-8-carbonitrile], the pIC50 is 7.22 in data set [1] (NPM-ALK, 96 h); 6.99 in data set [1]; 8.74 and 8.82 in data set [2].
Regarding `CCc1cc2c(=O)c3c4ccc(C#N)cc4[nH]c3n(C3CCCC3)c2cc1N1CCN(C)CC1` [ALK-48, 5-Cyclopentyl-2-ethyl-3-(4-methylpiperazin-1-yl)-11-oxo-6,11-dihydro-5H-indolo[2,3-b]quinoline-8-carbonitrile], the pIC50 in data set [1] (NPM-ALK, 96 h) is 7.15; in data set [1], 7.08; in data set [2] it was 7.82.
Regarding `CCc1cc2c(=O)c3c4ccc(C#N)cc4[nH]c3n(CC)c2cc1N1CCN(C)CC1` [ALK-49, 2,5-Diethyl-3-(4-methylpiperazin-1-yl)-11-oxo-6,11-dihydro-5H-indolo[2,3-b]quinoline-8-carbonitrile], the pIC50 in data set [1] (NPM-ALK, 96 h) was 6.50; in data set [1] it was 6.26; in data set [2], 8.72 and 8.55.
As to `C=C(C)c1cc2c(=O)c3c4ccc(C#N)cc4[nH]c3n(C(C)C)c2cc1N1CCN(C)CC1` [ALK-51, 5-isoPropyl-3-(4-methylpiperazin-1-yl)-11-oxo-2-(prop-1-en-2-yl)-6,11-dihydro-5H-indolo[2,3-b]quinoline-8-carbonitrile], the pIC50 in data set [1] (NPM-ALK, 96 h) is 7.15; in data set [1] it was 7.00; in data set [2], 7.69.
As to `CCOc1cc2c(=O)c3c4ccc(C#N)cc4[nH]c3n(C3CCCC3)c2cc1N1CCN(C)CC1` [ALK-54, 5-Cyclopentyl-2-ethoxy-3-(4-methylpiperazin-1-yl)-11-oxo-6,11-dihydro-5H-indolo[2,3-b]quinoline-8-carbonitrile], the pIC50 in data set [1] (NPM-ALK, 96 h) is 7.20; in data set [2] it was 7.61.
Take `CC(C)n1c2cc(N3CCN(C)CC3)c(OC(F)F)cc2c(=O)c2c3ccc(C#N)cc3[nH]c21` [ALK-59, 2-(Difluoromethoxy)-5-isopropyl-3-(4-methylpiperazin-1-yl)-11-oxo-6,11-dihydro-5H-indolo[2,3-b]quinoline-8-carbonitrile]: the pIC50 is 6.35 in data set [1] (NPM-ALK, 96 h) and 8.80 in data set [2].
Consider `CCc1cc2c(=O)c3c4ccc(C#N)cc4[nH]c3n(C(C)C)c2cc1N1CCNCC1` [ALK-81, 2-Ethyl-5-isopropyl-11-oxo-3-(piperazin-1-yl)-6,11-dihydro-5H-indolo[2,3-b]quinoline-8-carbonitrile], for which the pIC50 in data set [1] (NPM-ALK, 96 h) was 6.36; in data set [2], 10.00.
The like results for `CCc1cc2c(=O)c3c4ccc(C#N)cc4[nH]c3n(C(C)C)c2cc1N1CCOCC1` [ALK-82, 2-Ethyl-5-isopropyl-3-morpholino-11-oxo-6,11-dihydro-5H-indolo[2,3-b]quinoline-8-carbonitrile] were, in that order, 7.34 and 8.64.
The like results for `CCc1cc2c(=O)c3c4ccc(C#N)cc4[nH]c3n(C(C)C)c2cc1C1CCNCC1` [CJ-2204, 2-Ethyl-5-isopropyl-11-oxo-3-(piperidin-4-yl)-6,11-dihydro-5H-indolo[2,3-b]quinoline-8-carbonitrile] were, in that order, 6.11 and 9.59.
As to `COc1cc2c(=O)c3c4ccc(C#N)cc4[nH]c3n(C(C)C)c2c(F)c1C1CCN(C)CC1` [CJ-2212, 4-Fluoro-5-isopropyl-2-methoxy-3-(1-methylpiperidin-4-yl)-11-oxo-6,11-dihydro-5H-indolo[2,3-b]quinoline-8-carbonitrile], the AUC(0-t) in data set [3] (setting [4]) came out at 574 ng·h/mL; in data set [3] (oral, read-out: AUC0-t PO), 2060 ng·h/mL. In addition, the Cmax was 169 ng/mL in data set [3] (intravenous, read-out: Cmax IV) and 208 ng/mL in data set [3] (oral, read-out: Cmax PO). In addition, the Tmax in data set [3] (intravenous, read-out: Tmax IV) came to 4.98 min; in data set [3] (oral, read-out: Tmax PO) it was 320 min. Further, the half-life in data set [3] (setting [5]) was 287 min; in data set [3] (setting [6]), 245 min. Moreover, in data set [3], the bioavailability amounted to 70.6%.
Take `COc1cc2c(=O)c3c4ccc(C#N)cc4[nH]c3n(C(C)C)c2c(F)c1C1CCN(C2COC2)CC1` [CJ-2224, 4-Fluoro-5-isopropyl-2-methoxy-3-(1-(oxetan-3-yl)piperidin-4-yl)-11-oxo-6,11-dihydro-5H-indolo[2,3-b]quinoline-8-carbonitrile]: the AUC(0-t) in data set [3] (setting [4]) came out at 2340 ng·h/mL; in data set [3] (oral, read-out: AUC0-t PO) it was 9640 ng·h/mL. In addition, the Cmax in data set [3] (intravenous, read-out: Cmax IV) is 959 ng/mL; in data set [3] (oral, read-out: Cmax PO) it was 1170 ng/mL. Further, the Tmax in data set [3] (intravenous, read-out: Tmax IV) worked out at 4.98 min; in data set [3] (oral, read-out: Tmax PO) it was 40.2 min. In addition, the half-life in data set [3] (setting [5]) is 283 min; in data set [3] (setting [6]), 232 min. The bioavailability in data set [3] is 81.5%.
For `COc1cc2c(=O)c3c4ccc(C#N)cc4[nH]c3n(C(C)C)c2c(F)c1C1CCN(C(C)C)CC1` [CJ-2225, 4-Fluoro-5-isopropyl-3-(1-isopropylpiperidin-4-yl)-2-methoxy-11-oxo-6,11-dihydro-5H-indolo[2,3-b]quinoline-8-carbonitrile], the AUC(0-t) in data set [3] (setting [4]) worked out at 1110 ng·h/mL; in data set [3] (oral, read-out: AUC0-t PO) it was 2340 ng·h/mL. Besides, the Cmax in data set [3] (intravenous, read-out: Cmax IV) was 212 ng/mL; in data set [3] (oral, read-out: Cmax PO), 225 ng/mL. The Tmax amounted to 13.3 min in data set [3] (intravenous, read-out: Tmax IV) and 320 min in data set [3] (oral, read-out: Tmax PO). The half-life in data set [3] (setting [5]) was 272 min; in data set [3] (setting [6]), 259 min. The bioavailability in data set [3] came out at 41.7%.
In the case of `COc1cc2c(=O)c3c4ccc(C#N)cc4[nH]c3n(C(C)C)c2c(F)c1C1CCN(C2CCOCC2)CC1` [CJ-2226, 4-Fluoro-5-isopropyl-2-methoxy-11-oxo-3-(1-(tetrahydro-2H-pyran-4-yl)piperidin-4-yl)-6,11-dihydro-5H-indolo[2,3-b]quinoline-8-carbonitrile], the AUC(0-t) was determined as 1000 ng·h/mL in data set [3] (setting [4]) and 2370 ng·h/mL in data set [3] (oral, read-out: AUC0-t PO). For the same compound, the Cmax came out at 296 ng/mL in data set [3] (intravenous, read-out: Cmax IV) and 230 ng/mL in data set [3] (oral, read-out: Cmax PO). Moreover, the Tmax turned out to be 4.98 min in data set [3] (intravenous, read-out: Tmax IV) and 280 min in data set [3] (oral, read-out: Tmax PO). For the same compound, the half-life in data set [3] (setting [5]) is 262 min; in data set [3] (setting [6]), 299 min. Also, in data set [3], the bioavailability was found to be 47.3%.
